A short description of assay [1]: Inhibition of mouse his-tagged ctMGAM-N2 expressed in Sf9 cells assessed as amount of glucose produced using maltose as a substrate after 45 mins by glucose oxidase assay.
Assay [2] can be described thus: Inhibition of mouse his-tagged ctMGAM-N20 expressed in Sf9 cells assessed as amount of glucose produced using maltose as a substrate after 45 mins by glucose oxidase assay.
Assay [3] can be described thus: Inhibition of human ntMGAM expressed in Drosophila S2 cells assessed as amount of glucose produced using maltose as a substrate after 45 mins by glucose oxidase assay. Format: cell-based.
A short description of assay [4]: Inhibition of mouse his-tagged ctSI expressed in Sf9 cells assessed as amount of glucose produced using maltose as a substrate after 45 mins by glucose oxidase assay.
The nature of assay [5]: Inhibition of human ntSI expressed in Drosophila S2 cells assessed as amount of glucose produced using maltose as a substrate after 45 mins by glucose oxidase assay. Format: cell-based.
Assay [6] in a line: Selectivity ratio of Ki for human ntMGAM to Ki for mouse ctMGAM-N2.
A short description of assay [7]: Selectivity ratio of Ki for human ntSI to Ki for mouse ctMGAM-N2.
Assay [8] is filed under the species Mus musculus. Nature of the assay: Selectivity ratio of Ki for mouse ctSI to Ki for mouse ctMGAM-N2.
Assay [9] in a line: Selectivity ratio of Ki for human ntMGAM to Ki for mouse ctMGAM-N20.
Assay [10] can be described thus: Selectivity ratio of Ki for human ntSI to Ki for mouse ctMGAM-N20.
The species named for assay [11] is Mus musculus. The assay can be described thus: Selectivity ratio of Ki for mouse ctSI to Ki for mouse ctMGAM-N20.
Assay [12] is described as follows: Selectivity ratio of Ki for human ntMGAM to Ki for mouse ctSI.
Assay [13] is described as follows: Selectivity ratio of Ki for human ntSI to Ki for mouse ctSI.
For assay [14], the species on record is Mus musculus. The assay can be described thus: Selectivity ratio of Ki for mouse ctMGAM-N20 to Ki for mouse ctMGAM-N2.
Assay [15] is described as follows: Activity of mouse his-tagged ctMGAM-N2 expressed in Sf9 cells assessed as amount of glucose produced after 45 mins by glucose oxidase assay.
Assay [16] can be described thus: Activity of mouse his-tagged ctMGAM-N20 expressed in Sf9 cells assessed as amount of glucose produced after 45 mins by glucose oxidase assay.
Assay [17] can be described thus: Activity of mouse his-tagged ctSI expressed in Sf9 cells assessed as amount of glucose produced after 45 mins by glucose oxidase assay.
Assay [18] is described as follows: Activity of human ntSI expressed in Drosophila S2 cells assessed as amount of glucose produced after 45 mins by glucose oxidase assay. Format: cell-based.
A short description of assay [19]: Activity of human ntMGAM expressed in Drosophila S2 cells assessed as amount of glucose produced after 45 mins by glucose oxidase assay. The class given is cell-based.
The species named for assay [20] is Mus musculus. The assay can be described thus: Ratio of Km for mouse ctMGAM-N20 to Km for mouse ctMGAM-N2.
A short description of assay [21]: Activity of mouse his-tagged ctMGAM-N2 expressed in Sf9 cells assessed as amount of glucose produced using maltose as a substrate after 45 mins by glucose oxidase assay.
Assay [22] in a line: Activity of mouse his-tagged ctMGAM-N20 expressed in Sf9 cells assessed as amount of glucose produced using maltose as a substrate after 45 mins by glucose oxidase assay.
The species named for a further assay is Homo sapiens. Nature of the assay: Selectivity ratio of Ki for human ntMGAM to Ki for human ntSI.
The species entered for assay [23] is Mus musculus. The assay can be described thus: Selectivity ratio of Ki for mouse ctMGAM-N2 to Ki for mouse ctMGAM-N20.
The species entered for assay [24] is Mus musculus. The assay can be described thus: Selectivity ratio of Ki for mouse ctMGAM-N2 to Ki for mouse ctSI.

One may read the Ki as the dissociation constant of the complex between target and ligand, obtained from inhibition or displacement. `C[C@H]1O[C@H](O[C@H]2[C@H](O)[C@@H](O)[C@@H](O[C@H]3[C@H](O)[C@@H](O)C(O)O[C@@H]3CO)O[C@@H]2CO)[C@H](O)[C@@H](O)[C@@H]1N[C@H]1C=C(CO)[C@@H](O)[C@H](O)[C@H]1O` (stereo not given in full) [ACARBOSE]: the Ki in assay [1] was found to be 9 nM; in assay [2], 28 nM; in assay [3], 62000 nM; in assay [4], 246 nM; in assay [5], 14000 nM. Also, the Ratio Ki (in [6]; in assay [7]; in the assay listed under Mus musculus [8]; in assay [9]; in assay [10]; in the assay listed under Mus musculus [11]) was 1000 throughout. Further, the Ratio Ki in assay [12] and in assay [13] was 100 in each case.
Turning to `O=S(=O)([O-])O[C@@H](CO)[C@H](O)C[Se+]1C[C@@H](O)[C@H](O)[C@H]1CO` (stereo not given in full) [BLINTOL], the Ki in assay [1] came to 18 nM; in [2], 13 nM; in assay [3] it was 490 nM; in assay [4], 29 nM; in assay [5], 160 nM. In addition, the Ratio Ki (in [6]; in assay [7]; in the assay filed under Mus musculus [8]; in the assay filed under Mus musculus [14]) was 10 in each case.
For the compound `OC[C@@H]1[C@@H](O)[C@H](O)C[S+]1C[C@@H](O)[C@@H](O)[C@H](O)[C@H](O)[C@@H](O)CO` (stereo not given in full) [DE-O-SULFONATED KOTALANOL], the inhibition constant Ki is 26 nM in assay [1]; 78 nM in assay [2]; 30 nM in assay [3]; 26 nM in assay [4]; 12 nM in assay [5].
Turning to `O=S(=O)([O-])O[C@@H]([C@H](O)[C@H](O)[C@@H](O)CO)[C@H](O)C[S+]1C[C@@H](O)[C@H](O)[C@H]1CO` (stereo not given in full) [KOTALANOL], the Ki stood at 64 nM in assay [1]; 92 nM in assay [2]; 190 nM in assay [3]; 42 nM in assay [4]; 600 nM in assay [5].
For orientation: Km means the concentration of substrate that gives half-maximal velocity. Turning to `OC[C@H]1O[C@H](O[C@H]2[C@H](O)[C@@H](O)[C@H](O)O[C@@H]2CO)[C@H](O)[C@@H](O)[C@@H]1O` [MALTOSE], the Km in assay [15] amounted to 1590 µM; in [16], 1910 µM; in assay [17], 2500 µM; in [18], 7100 µM; in assay [19], 4300 µM; in assay [4], 2500 µM. Further, the Km was 1590 µM in assay [21] and 1910 µM in [22]. Further, the Ratio in the assay listed under Mus musculus [20] was found to be 4.
Regarding `OCCN1C[C@H](O)[C@@H](O)[C@H](O)[C@H]1CO` [MIGLITOL], the Ki in assay [1] was 211 nM; in assay [2] it was 230 nM; in assay [3] it was 1000 nM; in [4], 130 nM; in assay [5], 148 nM. Besides, the Ratio Ki (in assay [6]; in assay [9]; in assay [12]; in the assay filed under Homo sapiens) was 4 each time.
In the case of `O=S(=O)([O-])O[C@@H](CO)[C@H](O)C[S@+]1C[C@@H](O)[C@H](O)[C@H]1CO` [SALACINOL], the Ki in [1] turned out to be 213 nM; in assay [2] it was 58 nM; in assay [4], 47 nM; in [5], 277 nM. For the same compound, the Ratio Ki was determined as 5 in assay [9]; 5 in [10]; 5 in assay [12]; 5 in assay [13]; 4 in the assay listed under Mus musculus [23]; 5 in the assay filed under Mus musculus [24].
